Assays:
[1] = test system: T1, periplasmic L-ASNase (PCH199 L-ASNase, type II); assay: Michaelis-Menten non-linear regression (assay details not told); format: biochemical, Pseudomonas sp. PCH199; conditions: 0.02-0.5 mM substrate; assay pH and temperature not stated for L-glutamine
T1 construct: gene ansB; native, purified from periplasm by osmotic shock (ammonium sulfate, Q-Sepharose, Superdex 200)

[2] = test system: T1, periplasmic L-ASNase (PCH199 L-ASNase, type II); assay: Nessler ammonia assay at […] nm, non-linear Michaelis-Menten fit; format: biochemical, Pseudomonas sp. PCH199; conditions: 0.1-3.0 mM substrate; standard assay 50 mM Tris-HCl pH 8.5, 37 ℃ (temperature of the kinetic run not restated)

| Structure (SMILES) | Km [1] [µM] | Km [2] [µM] |
| --- | --- | --- |
| NC(=O)CC[C@H](N)C(=O)O [L-glutamine] | 34 | – |
| NC(=O)C[C@H](N)C(=O)O [L-asparagine] | – | 164 ± 9 |

Reference: article PMC9958223, “Biochemical characterization of extremozyme L-asparaginase from Pseudomonas sp. PCH199 for therapeutics” (AMB Express, 2023)
